Experimental data published in patent US20060121072A1, “Topical parasiticide formulations and methods of treatment” (priority 2002, published 2006).
One block for each compound: values may come before it.

What was measured:
[1] = Plasma pharmacokinetics of triclabendazole (with sulphone and sulphoxide metabolites) in cattle; assay type: in vivo
Procedure: (§1) Formulations according to the invention were tested for their efficacy in delivering benzimidazoles and macrocyclic lactones to the bloodstream of mammals (cattle), and compared to the efficacy in delivering these agents to animals' bloodstreams by standard commercially available drench (Fasinex 120®), and an experimental solvent-based triclabendazole/ivermectin pour-on formulation.
Cattle (typically Hereford or Hereford cross) with either natural or artificially infected burdens of fluke and nematodes were used in pen and field trials. […] Experimental treatments were applied along the backline using a commercially available backliner gun fitted with a plastic shroud to ensure correct delivery of the formulation according to the protocol.
(§2) Blood samples (plasma) were taken by venipuncture of the jugular vein at the designated time intervals. Analysis for triclabendazole and ivermectin residues in the plasma was carried out and reported by commercial contract laboratories.
The triclabendazole was extracted from the plasma using ethyl acetate. Following concentration and SPE clean up, the triclabendazole and its sulphone and sulphoxide metabolites were analysed by reverse phase HPLC using UV detection.

[2] = Plasma pharmacokinetics of ivermectin in cattle; assay type: in vivo
Procedure: as §1
Cattle (typically Hereford or Hereford cross) with either natural or artificially infected burdens of fluke and nematodes were used in pen and field trials. Within a given trial animals were allotted into treatment groups, each having similar mean weights and fluke and nematode burdens. Experimental treatments were applied along the backline using a commercially available backliner gun fitted with a plastic shroud to ensure correct delivery of the formulation according to the protocol.
as §2
Ivermectin was extracted from the plasma using acetonitrile and concentrated by evaporation. The sample was cleaned up by solid phase extraction (SPE) chromatography and the ivermectin determined as the N-methyl imidazole derivative using reverse phase HPLC with fluorescence detection.

[3] = Table 2 pour-on 90 g/L triclabendazole + 10.0 g/L ivermectin, 1 mL/10 kg, 1.0 mg/kg
[4] = Table 2 pour-on 120 g/L triclabendazole + 5.0 g/L ivermectin, 1 mL/10 kg, 0.5 mg/kg
[5] = Table 2 pour-on 180 g/L triclabendazole + 7.5 g/L ivermectin, 1 mL/10 kg, 0.75 mg/kg
[6] = Table 3 pour-on 240 g/L triclabendazole + 3.33 g/L ivermectin (triethanolamine), 1 ml/6.67 kg, 0.5 mg/kg
[7] = Table 3 pour-on 240 g/L triclabendazole + 5 g/L ivermectin (sodium dodecyl sulphate), 1 ml/10 kg, 0.5 mg/kg
[8] = Table 3 pour-on 240 g/L triclabendazole + 10 g/L ivermectin (triethanolamine), 1 ml/20 kg, 0.5 mg/kg
[9] = Table 4 pour-on 180 g/L triclabendazole + 7.5 g/L ivermectin, 1 mL/15 kg, mean treatment area 110 cm^2, 0.5 mg/kg
[10] = Table 4 pour-on 240 g/L triclabendazole + 10.0 g/L ivermectin, 1 mL/20 kg, mean treatment area 76 cm^2, 0.5 mg/kg

Triclabendazole AUC ([1]; Table 2 pour-on 90 g/L triclabendazole + 10.0 g/L ivermectin, 1 mL/10 kg, 9.0 mg/kg): 72 µg·days/mL
Triclabendazole AUC ([1]; Table 2 pour-on 120 g/L triclabendazole + 5.0 g/L ivermectin, 1 mL/10 kg, 12 mg/kg): 85 µg·days/mL
Triclabendazole AUC ([1]; Table 2 pour-on 180 g/L triclabendazole + 7.5 g/L ivermectin, 1 mL/10 kg, 18 mg/kg): 139 µg·days/mL
Triclabendazole AUC ([1]; Table 3 pour-on 240 g/L triclabendazole + 3.33 g/L ivermectin (triethanolamine), 1 ml/6.67 kg, 36 mg/kg): 177 µg·days/mL
Triclabendazole AUC ([1]; Table 3 pour-on 240 g/L triclabendazole + 5 g/L ivermectin (sodium dodecyl sulphate), 1 ml/10 kg, 24 mg/kg): 129 µg·days/mL
Triclabendazole AUC ([1]; Table 3 pour-on 240 g/L triclabendazole + 10 g/L ivermectin (triethanolamine), 1 ml/20 kg, 12 mg/kg): 73 µg·days/mL
Triclabendazole AUC ([1]; Table 4 pour-on 180 g/L triclabendazole + 7.5 g/L ivermectin, 1 mL/15 kg, mean treatment area 110 cm^2, 12.0 mg/kg): 65 µg·days/mL
Triclabendazole AUC ([1]; Table 4 pour-on 240 g/L triclabendazole + 10.0 g/L ivermectin, 1 mL/20 kg, mean treatment area 76 cm^2, 12.0 mg/kg): 170 µg·days/mL
Compound: CSc1nc2cc(Cl)c(Oc3cccc(Cl)c3Cl)cc2[nH]1 [Triclabendazole, 5-chloro-6-(2,3-dichlorophenoxy)-2-(methylthio)-benzimidazole]

Compound: 22,23-dihydroavermectin B1 [Ivermectin]
Ivermectin AUC [2, 3]: 88 ng·days/mL
Ivermectin Mean plasma [2, 3]: 4.4 ng/mL
Ivermectin Plasma Cmax [2, 3]: 8 ng/mL
Ivermectin Tmax [2, 3]: 120 h
Ivermectin AUC [2, 4]: 52 ng·days/mL
Ivermectin Mean plasma [2, 4]: 2.5 ng/mL
Ivermectin Plasma Cmax [2, 4]: 8 ng/mL
Ivermectin Tmax [2, 4]: 120 h
Ivermectin AUC [2, 5]: 79 ng·days/mL
Ivermectin Mean plasma [2, 5]: 4.1 ng/mL
Ivermectin Plasma Cmax [2, 5]: 13 ng/mL
Ivermectin Tmax [2, 5]: 120 h
Ivermectin AUC [2, 6]: 82 ng·days/mL
Ivermectin Plasma Cmax [2, 6]: 7.5 ng/mL
Ivermectin Tmax [2, 6]: 170 h
Ivermectin AUC [2, 7]: 84 ng·days/mL
Ivermectin Plasma Cmax [2, 7]: 9.5 ng/mL
Ivermectin Tmax [2, 7]: 120 h
Ivermectin AUC [2, 8]: 104 ng·days/mL
Ivermectin Plasma Cmax [2, 8]: 10.4 ng/mL
Ivermectin Tmax [2, 8]: 170 h
Ivermectin AUC [2, 9]: 30 ng·days/mL
Ivermectin Mean plasma conc^n [2, 9]: 1.7 ng/mL
Ivermectin AUC [2, 10]: 43 ng·days/mL
Ivermectin Mean plasma conc^n [2, 10]: 2.2 ng/mL
